In brackets after ≈: the same amount, converted by molar mass. Non-standard residues stand in square brackets, D forms with d. Residues, ends and D or L forms follow the SMILES beside them. ξ: configuration not given here. *: point of attachment. dNMeW = CN[C@H](Cc1c[nH]c2ccccc12)C(=O)O; ξNMeW = CNC(Cc1c[nH]c2ccccc12)C(=O)O; ξW = NC(Cc1c[nH]c2ccccc12)C(=O)O; NMeAib = CNC(C)(C)C(=O)O; Boc = CC(C)(C)OC(=O)*; Aib = CC(C)(N)C(=O)O; OtBu = CC(C)(C)O*
Columns and labels:
[1] = Metabolic stability in human liver microsomes; format: in vitro ADME; details: % of compound remaining after 30 minutes
Protocol: (§1) The metabolic stability of exemplary peptide analogs as disclosed herein was tested in Human and Rat liver microsomes (HLM and RLM, respectively). The obtained data is presented in Table 5 below, as % of compound remaining after 30 minutes). All of the peptides were found sufficiently stable.

[2] = Metabolic stability in rat liver microsomes; format: in vitro ADME; details: % of compound remaining after 30 minutes
Protocol: as §1

[3] = Aqueous solubility at pH 7.4; format: physicochemical; details: aqueous medium at pH 7.4, aqueous buffer
Protocol: The aqueous solubility of exemplary dipeptide analogs as disclosed herein was tested at pH 7.4.

P-gp (human PGP) = assay: Membrane permeability in MDCKII/PGP cells; format: in vitro ADME; details: dog, MDCK-MDR1; MDCKII cells transfected with human PGP; read-out: Permeability MDCKII/PGP AI (asymmetry index)
Protocol: (§2) Exemplary peptide analogs as disclosed herein were tested for membrane permeability in MDCKII cells transfected with human PGP, for evaluating intestinal absorption. The data obtained in presented in Table 5 below, where A-B is the apical-basolateral flux and AI is the asymmetry index.

human P-gp (PGP) = assay: Membrane permeability in MDCKII/PGP cells; format: in vitro ADME; details: dog, MDCK-MDR1; MDCKII cells transfected with human PGP; read-out: Permeability MDCKII/PGP A-B (apical-basolateral flux)
Protocol: as §2

Aβ1-42 = target: T1, Aβ1-42 (Homo sapiens, UniProt P05067); assay: Aβ1-42 globulomer generation / oligomer formation (Hillen protocol), gel staining and western blot; format: biochemical
T1 construct: β-amyloid polypeptides (Aβ 1-42, >98% pure); purchased Bachem (Bubendorf, Switzerland); host or cells: chemical synthesis
T1 sequence (P05067 672-713 limits assumed): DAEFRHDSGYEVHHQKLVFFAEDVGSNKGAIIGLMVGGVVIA
Protocol: Aβ1-42 intermediates and globulomers were produced according to Barghorn et al. [J. Neurochem. 2005 November; 95(3):834-47]. Synthetic lyophilized β-amyloid polypeptides (Aβ 1-42, >98% pure) were purchased from Bachem (Bubendorf, Switzerland). To avoid pre-aggregation, synthetic lyophilized Aβ1-42 was pretreated with HFIP. Aβ1-42 was dissolved in 100% HFIP, sonicated for 20 seconds and incubated for 2 hours at 37° C. under shaking at 100 RPM. After evaporation in a speedVac, Aβ1-42 was re-suspended in DMSO, with or without the tested peptide, to 5 mM and diluted with 20 mM NaH2PO4, 140 mM NaCl, pH 7.4, to a final concentration of 400 μM, and 1/10 volume 2% SDS (final concentration of 0.2%). The Aβ globulomers were generated by further dilution with two volumes of H2O and incubation for 18 hours or more.
To evaluate the effect of D-Trp-Aib analogs on the transformation of the Aβ1-42 into the toxic assemblies, the tested peptides were incubated with Aβ1-42 at increasing molar ratios, and the reaction mixtures were resolved on SDS-PAGE followed by western blot analysis by a specific anti Aβ antibody (6E10) (SIGNET).

Aβ monomers = target: T2, Aβ monomers (Homo sapiens, UniProt P05067); assay: SPR binding assay (BIACORE X100); details: immobilized Aβ monomers, 25° C., steady-state; mean ± SD; read-out: SPR binding IC50 [nM] +/− SD (repeats)
T2 construct: Aβ monomers were covalently coupled to one flow cell of CM7 sensor chips
T2 sequence (P05067 672-713 limits assumed): as above
Protocol: Surface Plasmon Resonance (SPR) studies were performed using a BIACORE X100 biosensor instrument (GE Lifesciences, Uppsala, Sweden), equipped with two flow cells on a sensor chip. Aβ monomers were covalently coupled to one flow cell of CM7 sensor chips (GE Lifesciences, Uppsala, Sweden) via primary amines using the Amine Coupling Kit (GE Lifesciences, Uppsala, Sweden). As a control, ethanolamine was immobilized on the reference channel. […] One RU represents about 1 pg/mm^2 of the analytes on the surface matrix of the sensor chip. […] The stock solutions were diluted 1:1000 in HBS-EP buffer which contains 0.01M HEPES, pH7.4, 0.15M NaCl, 3 mM EDTA, and 0.005% of surfactant P20. HBS-EP+0.1% (v/v) DMSO was used as assay running buffer. The test solutions were injected over the sensor chip in concentrations ranging from 0.1 nM to 300 nM at a flow rate of 10 μl/min for 180 seconds at 25° C. Concentrations were tested in duplicate. The RUs elicited by the compound injected into the ethanolamine control flow cell was set as reference response and subtracted from the RUs elicited by the same compound injected to the Aβ saturated flow cell. The relationships between each RU obtained at the steady state of binding (plateau of the binding curve) and each concentration of the compound were plotted. After the analyte injection was stopped, HBS-EP buffer was flowed over the chip for 180 s to allow the bound analyte to dissociate from the immobilized Aβ and the dissociation curves were obtained. After the dissociation phase, regeneration solution (1M NaCl, 50 mM NaOH) was injected and flowed over the chip for 30 seconds to remove the residual bound analytes from the immobilized Aβ. BIACORE X100 control software Ver 1.1 was used to record the binding curves and BIACORE X100 evaluation software Ver 1.1 to analyze the curves (plot each RU at the steady state vs. concentration of analyte, fit the plot, determine KD values). The dissociation equilibrium constant KD of the analyte to the immobilized Aβ was determined from the steady-state levels estimating the maximum RU Rmax and calculating the KD as the concentration of the compound that elicited one-half of the Rmax.

| Metabolic Stability (%) HLM [1] [%] | Metabolic Stability (%) RLM [2] [%] | solubility [3] [µM] | efflux ratio (P-gp (human PGP)) | Papp A→B (human P-gp (PGP)) [×10⁻⁶ cm/s] | IC50 (Aβ monomers) [nM] | SMILES | other results |
| --- | --- | --- | --- | --- | --- | --- | --- |
| 90 | >100 | 253 (≈ 83.8 µg/mL) | 0.7 | 1.5 | – | CC(=O)NC(Cc1c[nH]c2ccccc12)C(=O)NC(C)(C)C(=O)O (stereo not drawn) | – |
| 87 | >100 | 222 (≈ 70.5 µg/mL) | 0.7 | 1.3 | – | CC(C)(NC(=O)C(Cc1c[nH]c2ccccc12)NC=O)C(=O)O (stereo not drawn) | – |
| – | – | > 278 | 0.8 | 1.3 | – | CC(=O)N(C)C(Cc1c[nH]c2ccccc12)C(=O)NC(C)(C)C(=O)O (stereo not drawn) (Ac-[ξNMeW]-[Aib]-OH) | – |
| >100 | >100 | > 355 | – | 1.6 | – | CC(C)(NC(=O)C(N)Cc1c[nH]c2ccccc12)C(N)=O (stereo not drawn) (H-[ξW]-[Aib]-NH2) | – |
| – | – | – | – | – | – | CC(C)(C)OC(=O)C(C)(C)NC(=O)[C@H](N)Cc1c[nH]c2ccccc12 [Compound 1] (H-[dW]-[Aib]-OtBu) | inhibition of Aβ1-42 globulomer formation (Aβ1-42; 10:1 (inhibitor:Aβ peptide) molar ratio): inhibit; inhibition of Aβ1-42 globulomer formation (Aβ1-42; 20:1 (inhibitor:Aβ peptide) molar ratio): inhibit |
| – | – | – | – | – | 2.8 ± 0.8 | CC(=O)N[C@H](Cc1c[nH]c2ccccc12)C(=O)NC(C)(C)C(=O)O [Compound A] | – |
| – | – | – | – | – | 56.4 ± 32.7 | CC(=O)N(C)[C@H](Cc1c[nH]c2ccccc12)C(=O)NC(C)(C)C(=O)O [Compound B] (Ac-[dNMeW]-[Aib]-OH) | – |
| – | – | – | – | – | 3.9 ± 0.1 | CC(C)(NC(=O)[C@@H](Cc1c[nH]c2ccccc12)NC=O)C(=O)O [Compound C] | – |
| – | – | – | – | – | 40.2 ± 3.4 | CNC(=O)C(C)(C)NC(=O)[C@H](N)Cc1c[nH]c2ccccc12 [Compound E] (H-[dW]-[Aib]-NHMe) | – |
| – | – | – | – | – | 4.2 | CN(C)C(=O)C(C)(C)NC(=O)[C@H](N)Cc1c[nH]c2ccccc12 [Compound F] (H-[dW]-[Aib]-NMe2) | – |
| – | – | – | – | – | 3.8 ± 1.4 | CN(C(=O)[C@@H](Cc1c[nH]c2ccccc12)NC(=O)OC(C)(C)C)C(C)(C)C(=O)O [Compound Q] (Boc-[dW]-[NMeAib]-OH) | – |
| – | – | – | – | – | 4.3 ± 1 | CC(=O)N[C@H](Cc1c[nH]c2ccccc12)C(=O)N(C)C(C)(C)C(=O)O [Compound R] (Ac-[dW]-[NMeAib]-OH) | – |
| – | – | – | – | – | 1.5 ± 0.6 | CC(C)(C)OC(=O)N/C(=C\c1c[nH]c2ccccc12)C(=O)NC(C)(C)C(N)=O [Compound T] | – |
| – | – | – | – | – | 6.2 ± 1.9 | CC(C)(C)OC(=O)N/C(=C\c1c[nH]c2ccccc12)C(=O)NC(C)(C)C(=O)O [Compound U] | – |
| – | – | – | – | – | 0.5 | CNC(=O)C(C)(C)N(C)C(=O)[C@@H](Cc1c[nH]c2ccccc12)NC(C)=O [Compound V] (Ac-[dW]-[NMeAib]-NHMe) | – |
| 95 | 81 | > 280 | 1.2 | 2.1 | – | CC(C)(C)OC(=O)N/C(=C\c1c[nH]c2ccccc12)C(=O)NC(C)(C)C(=O)O [drawing 63] | – |
| – | – | > 282 | 1.6 | 10.6 | – | CC(C)(C)OC(=O)N/C(=C\c1c[nH]c2ccccc12)C(=O)NC(C)(C)C(N)=O [drawing 64] | – |
| 100 | 87 | 239 (≈ 96.4 µg/mL) | 0.3 | 1.4 | – | CN(C(=O)[C@@H](Cc1c[nH]c2ccccc12)NC(=O)OC(C)(C)C)C(C)(C)C(=O)O [drawing 65] (Boc-[dW]-[NMeAib]-OH) | – |
| 88 | >100 | > 286 | 1 | 0.7 | – | CC(=O)N[C@H](Cc1c[nH]c2ccccc12)C(=O)N(C)C(C)(C)C(=O)O [drawing 66] (Ac-[dW]-[NMeAib]-OH) | – |
| >100 | >100 | > 350 | – | 1.2 | – | CC(C)(NC(=O)C(N)Cc1c[nH]c2ccccc12)C(=O)O (stereo not drawn) [reference compound] | – |

Source: patent US9630989B2, “Dipeptide analogs for treating conditions associated with amyloid fibril formation” (Ramot at Tel-Aviv University Ltd., priority 2010, dated 2017)
